Earlier results, collected in publication PMC2908260 (Journal of nuclear medicine : official publication, Society …, 2010).

Settings: other ^18F-labeled octreotide analogues

Substance: N^α-(1-deoxy-D-fructosyl)-N^ε-(2-[^18F]fluoropropionyl)-Lys^0-Tyr^3octreotate [[^18F]FP-Gluc-TOCA]
- log P: −1.70 ± 0.02
